Reference: patent US9642875B2, “Compounds and their effects on appetite control and insulin sensitivity” (priority 2012, dated 2017)
Entries after “also recorded” stand apart in the source; their conditions may differ. Read-outs that look alike come from different tables or passages of the source.

What was measured:
[1] = format: in vivo, human; details: 10 g, 24 hour pooled urine, n=5
Protocol: The mean (±SEM) age, weight and body mass index (BMI) was 32±4 years, 75.0±4.0 kg and 25.0±1.3 kg/m^2, respectively.
(§1) The inclusion criteria for the investigation were a BMI of 20 to 35 kg/m^2 and 21 to 65 years of age.
Subjects were studied on four occasions one week apart. […] Cumulative ^13CO2 excretion was also calculated. Blood was collected serially throughout the study.
Plasma was collected at −15, 0, 15, 30, 60, 90, 120, 180, 240, 300, 360 min for analysis of ^13C propionate enrichment by GC-combustion-IRMS (GC-C-IRMS). Acetate ^13C enrichment was also measured in the same analysis as a control for dietary influence on SCFA ^13C enrichment and for evidence of inter-conversion between propionate and acetate. Data were expressed as δ^13C (per mil or ‰) which represents the change in the measured ratio in parts per thousand from the internationally accepted standard carbon Vienna Pee Dee Belemnite (VPDB). Urine was analyzed for ^13C propionate by GC-C-IRMS. Urine was collected and pooled from just before consumption of the propionate ester for a period of 24 hours. Two 25 ml aliquots were collected and stored at −20° C. until analysis. Isotopic enrichment was expressed as δ^13C (‰). SCFA concentrations (mmol/L) were measured relative to an internal standard (3-methyl valerate).

[2] = format: in vivo, human
Protocol: Twenty healthy subjects (15 males and 5 females) were recruited for the food intake investigation. The mean (±SEM) age, weight and body mass index (BMI) was 31±2 years, 75.0±3.0 kg and 25.4±0.8 kg/m^2, respectively.
as §1
The study was performed in a randomized, double-blind, crossover manner, with each subject studied on two occasions >4 days apart. […] The amount of food was quantified preprandially and postprandially, and energy intake was calculated. […] In addition, VAS were also completed to assess the palatability of the standardized breakfast.
Differences in energy intake and incremental area under the curve (iAUC) for plasma hormone levels and VAS between trials were assessed using Paired Student's t tests. […] Significant effects were followed up by post hoc comparisons (Dunnett). P values<0.05 were considered statistically significant. Data are presented as means±SEM.

[3] = system: Bifidobacterium spp (Bif164); assay: faecal batch culture fermentation with fluorescent in situ hybridisation; format: cell-based
Protocol: (§2) Faecal samples were obtained from three healthy human volunteers (one female and two males; age 30-50 years; BMI 25-31). Volunteers were excluded if they suffered from any gastrointestinal disorder (e.g. ulcerative colitis, Crohn's disease, irritable bowel syndrome, peptic ulcers and cancer) and/or had taken antibiotics in the six months preceding sample donation. Samples were kept under anaerobic conditions (10% H2, 10% CO2 and 80% N2) and used within a maximum of 30 minutes following collection. Samples were diluted 1/10 w/w in anaerobic PBS (0.1 mol/1 phosphate buffer solution, pH 7.4) and homogenised in a stomacher (Stomacher 400, Seward, West Sussex, UK) for 2 minutes at normal speed.
Sterile batch culture fermenters (150 ml working volume) were set up in parallel and aseptically filled with 135 ml pre-reduced, sterile basal culture medium (peptone water 2 g/1 (Oxoid), yeast extract 2 g/1 (Oxoid, Basingstoke, UK), NaCl 0.1 g/l, K2HPO4 0.04 g/l, KH2PO4 0.04 g/l, MgSO4.7H2O 0.01 g/l, CaCl2.6H2O 0.01, NaHCO3 2 g/l, Tween 80 2 ml (BDH, Poole, UK), haemin 0.05 g/1, vitamin K1 10 cysteine.HCl 0.5 g/1, bile salts 0.5 g/1). The fermenters were gassed overnight with O2 free N2. Propionate inulin ester and inulin control substrates ( 1/10 w/v) were added to their respective fermenters just prior to the addition of the faecal slurry. […]

[4] = system: Bacteroides/Prevotella (Bac303); assay: as above; format: cell-based; details: all sampling points
Protocol: as §2
(§3) Sterile batch culture fermenters (150 ml working volume) were set up in parallel and aseptically filled with 135 ml pre-reduced, sterile basal culture medium (peptone water 2 g/1 (Oxoid), yeast extract 2 g/1 (Oxoid, Basingstoke, UK), NaCl 0.1 g/l, K2HPO4 0.04 g/l, KH2PO4 0.04 g/l, MgSO4.7H2O 0.01 g/l, CaCl2.6H2O 0.01, NaHCO3 2 g/l, Tween 80 2 ml (BDH, Poole, UK), haemin 0.05 g/1, vitamin K1 10 cysteine.HCl 0.5 g/1, bile salts 0.5 g/1). The fermenters were gassed overnight with O2 free N2. […] A substrate-free vessel was set up for each volunteer as the negative control.

[5] = system: Atopobium cluster (Ato291); assay: as above; format: cell-based; details: between 10 and 34 h
Protocol: as §2, §3

[6] = Source text: Healthy men and women aged 40-65 years, with a BMI of 25-40 kg/m^2 were recruited from the general public. Potential subjects were excluded if they had clinically significant illnesses (including type 1 or type 2 diabetes), were taking medication known to affect appetite and/or body weight, a weight loss of 3 kg or greater in the preceding two months, smoking, substance abuse, psychiatric illness, restrained eating (Dutch eating behavior questionnaire: male score >2.25; female score >2.80), and any abnormalities detected on physical examination, electrocardiography, or screening blood tests (measurement of complete blood count, electrolytes, fasting glucose, thyroid function and liver function). Women were ineligible if they were pregnant or breast-feeding. […] The study was carried out in accordance with the Declaration of Helsinki.
The study was conducted in a randomized, double-blind, placebo-controlled, parallel design. Two-day study visits were required at baseline (week 0) and after 24 weeks of dietary supplementation. On the day prior to each study visit, subjects were asked to consume a standard evening meal, fast overnight from 22:00 and to avoid strenuous physical activity and alcohol. All study visits commenced between 08:00 and 09:00. […] The dietary supplement was supplied to subjects in ready-to-use sachets and they were instructed to mix the contents into their normal diet once a day during the 24 week treatment period. All subjects were instructed to maintain their usual dietary and activity habits during the intervention period. […] After 8 and 16 weeks of the intervention period, subjects were invited to attend follow-up visits to record body weight and monitor compliance and gastrointestinal side-effects. After 24 weeks, measurements taken at baseline were repeated. Subjects returned all their used and unused sachets to estimate compliance. Symptom diary was also collected over the period of the study.
At study visits, a cannula was inserted into an antecubital vein and baseline blood samples were collected at −10 and 0 min to assess plasma concentrations of glucose, insulin, PYY and GLP-1. Following the 0 min sample, subjects were served a standardized breakfast (398 kcal; 71.2 g CHO, 7.9 g fat, 10.3 g protein). […] Postprandial blood samples were taken at 15, 30, 60, 90, 120, 180, 240 and 300 min and collected into heparin-coated tubes containing 0.2 ml of aprotinin (Bayer, UK). GLP-1- and PYY-like immunoreactivity was measured using specific and sensitive in-house radioimmunoassays. Insulin-like immunoreactivity was measured using an ultra-sensitive human insulin radioimmunoassay (Millipore) and plasma glucose was measured using an Abbott Architect ci8200 analyser (Abbott Diagnostics, USA). At 300 min subjects were offered a buffet lunch with food served in excess and subjects were asked to eat until they were comfortably full. The amount of food was quantified and energy intake calculated. Subjective hunger, satiety, and nausea were monitored with the use of 100 mm visual analog scales (VAS). Subjects were asked to complete the VAS before each blood sample. In addition, breath H2 was measured at 0, 60, 120, 180, 240 and 300 min (Bedfont Scientific, Kent UK) in a subset of each group (9 in the propionate ester group, 8 in the inulin control group).
Body composition was assessed using magnetic resonance imaging (MRI) and spectroscopy (MRS). […] Body weight was measured in all subjects to the nearest 0.1 kg (TBF-300, Tanita) and taken while subjects were wearing light clothing.

[7] = 10 g, 0-420 minute post oral administration, 20 subjects
[8] = 24 weeks vs baseline, fasting blood, listed as control

## inulin
[1]
  urine 13C propionate enrichment δ13C: −23.3±1.8 ‰
[2]; [7]
  fullness ratings, average iAUC: 26.6±2.9
  hunger ratings, average iAUC: −24.3±4.7
  pleasantness ratings, average iAUC: −26.6±4.6
  prospective food intake ratings, average iAUC: −19.9±3.6
  sickness ratings, average iAUC: −1.6±1.4
[2]; 10 g, whole meal test
  glucose levels, average iAUC: 0.28±0.12
  insulin levels, average iAUC: 32.5±4.7
[2]; 7 hours after intake of 10 g supplement, 20 subjects, mean±SEM
  food intake during standardised ad libitum buffet meal: 1175 ± 104 kcal
[3]; all time points (10, 24, 34, 48 h)
  Bif164 labelled cells compared to baseline: significantly increased
[3]; throughout fermentation
  Bif164 levels compared to propionate inulin ester cultures: significantly higher
[4]
  Bac303 labelled cells compared to baseline: significant increases
[5]
  Ato291 labelled cells compared to baseline: increased significantly
[6]; 10 g/day, after 24 weeks
  body weight gained: 0.38 ± 0.69 kg
[6]; 24 weeks
  breath hydrogen area under curve: 5000±1480
  fasting breath hydrogen: 19.1±7 ppm
  fasting glucose, insulin, HbA1c and triglyceride concentrations: no significant effect
[6]; [8]
  alanine transaminase: significantly reduced; also recorded: significant improvements
  alkaline phosphatase: significantly reduced; also recorded: significant improvements
  total cholesterol: significantly reduced; also recorded: significant improvements
[6]; 24 weeks, number of subjects
  subjects with substantial weight gain (≧5% baseline weight): 4 of 24
  subjects with weight gain ≧3% baseline weight: 6 of 24
[6]; 24 weeks, p=0.002
  ratio of internal adipose tissue:subcutaneous adipose tissue, within group: significantly increased
[6]; 24 weeks, p=0.049
  internal adipose tissue, within group: significantly increased
[6]; 24 weeks, proportion
  subjects with substantial weight gain (≧5% baseline weight): 17%
  subjects with weight gain ≧3% baseline weight: 25%
[6]; baseline
  breath hydrogen area under curve: 2355±800
  fasting breath hydrogen: 9±3 ppm
[6]; baseline (week 0)
  GLP-1 ΔAUC0-300 min: 3441 ± 843 pmol/L
  food intake at buffet lunch: 678 ± 69 kcal
  insulin response AUC0-300 min: 9285±882 μU/mL
  plasma PYY ΔAUC0-300 min: 962 ± 869 pmol/L
[6]; baseline (week 0), standardized breakfast
  glycemic response AUC0-300 min: 1600 ± 51 pmol/L
[6]; postprandial period, within group
  plasma PYY and GLP-1 release, week 24 vs baseline: unaffected
[6]; week 24
  GLP-1 ΔAUC0-300 min: 2278 ± 1000 pmol/L
  bloating and flatulence (side effect profile): significant increase
  food intake at buffet lunch: 651 ± 64 kcal
  insulin response AUC0-300 min: 8781±731 μU/mL
  plasma PYY ΔAUC0-300 min: 656 ± 880 pmol/L
[6]; week 24, standardized breakfast
  glycemic response AUC0-300 min: 1691 ± 54 pmol/L
[6]; week 24 vs baseline
  reduction of food intake: 4.0%
[6]; within group
  insulin response, week 24 vs baseline: not significantly different
[6]; within group, listed as control
  postprandial glucose (glycemic) response, week 24 vs baseline: significantly greater; also recorded: significant deterioration
